We go through 11 compounds from patent US7585859B2, “PDE4B inhibitors and uses therefor” (Plexxikon, Inc., priority 2004, dated 2009).

Test [1] has as its system TNFα levels in serum of LPS-challenged rats. Put plainly: Rat inhibition studies: serum TNFα after iv LPS challenge. The test is classed as in vivo. The note with it: read-out: % inhibition r TNFα; for inhibition in vivo at 100 mg/kg: 100 mg/kg po. In outline: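 Male CD (SD) rats, groups of 5, dosed po or ip; 2 h later iv LPS 0.1 mg/kg. Serum collected 2 h post-LPS unless otherwise indicated, TNFα measured by ELISA in duplicate. Values are percent decrease versus vehicle-dosed groups.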

A further test deals with T1, PDE4D (Homo sapiens, UniProt Q08499).
T1 construct: PDE4D: The catalytic domain of human PDE4B from S3 16-V692; His6 (N); thrombin cleavage site (N); made in house; host or cells: E. coli
The test can be described thus: PDE4 IC50 determination by Scintillation Proximity Assay, PDE4D. The test is classed as biochemical. In outline:
(§1)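 Radiometric SPA: PDE4B (80 ng/ml) or PDE4D (4 ng/ml) hydrolysed [^3H]cAMP over 30 min at 30°, and the bead-bound [^3H]AMP was scintillation-counted.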

Test [2] has as its target T2, full-length human PDE4D5 isozyme (Homo sapiens, UniProt Q08499).
T2 construct: The full-length human PDE4D5 isozyme; His6 (N); TEV cleavage site (N); made in house; host or cells: baculovirus infected insect cells (unpurified lysate)
Put plainly: PDE4 IC50 determination by Scintillation Proximity Assay, PDE4D5. The test is classed as biochemical. Put shortly: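 Unpurified His6-tagged full-length human PDE4D5 from baculovirus-infected insect cell lysate, 0.083 μl glycerol stock/ml, hydrolysed [3H]cAMP in Tris pH 7.5/MgCl/EGTA buffer, 30 min at 30°. ZnSO4/SPA beads stop; [3H]AMP counted. Controls: DMSO and roflumilast; 11-point duplicate curves, nonlinear-regression IC50.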
A general note: In a scintillation proximity assay essentially only radioactivity close to the scintillant gives light.

The target in test [3] is T3, PDE4B: The catalytic domain of human PDE4B from S152-S528 (Homo sapiens, UniProt Q07343).
T3 construct: His6 (N); thrombin cleavage site (N); made in house; host or cells: E. coli
Put plainly: PDE4 IC50 determination by Scintillation Proximity Assay, PDE4B. The test is classed as biochemical. In outline:
as §1

[4] abbreviates: 2 h, rat, po, 2 hr challenge delay.
Where [5] appears, read: Table 1B, Formula I compounds, read-out: IC50 PDE4D.
Setting [6] is: Table 1B, Formula I compounds, read-out: IC50 PDE4D5.
[7] abbreviates: Table 1B, Formula I compounds, read-out: IC50 PDE4B.
[8] abbreviates: po, 2 h, rat in vivo inhibition assay, 2 hr challenge delay.
[9] abbreviates: po, 2 h, rat in vivo, 2 hr challenge delay, percent decrease in TNFα versus vehicle.
The mark [10] stands for this setting: second part of Table 2B (2-23 to 2-103), column 5, column is PDE4D in first part, read-out: IC 50 vs. indicated assay h TNFα.
Where [11] appears, read: second part of Table 2B (2-23 to 2-103), column 3, column is PDE4B in first part, read-out: IC 50 vs. indicated assay h TNFα.

Each structure is given as a SMILES string. Where two headings read alike, the source gives them in different places.

T3 sequence (Q07343 with tags, fused parts or gaps): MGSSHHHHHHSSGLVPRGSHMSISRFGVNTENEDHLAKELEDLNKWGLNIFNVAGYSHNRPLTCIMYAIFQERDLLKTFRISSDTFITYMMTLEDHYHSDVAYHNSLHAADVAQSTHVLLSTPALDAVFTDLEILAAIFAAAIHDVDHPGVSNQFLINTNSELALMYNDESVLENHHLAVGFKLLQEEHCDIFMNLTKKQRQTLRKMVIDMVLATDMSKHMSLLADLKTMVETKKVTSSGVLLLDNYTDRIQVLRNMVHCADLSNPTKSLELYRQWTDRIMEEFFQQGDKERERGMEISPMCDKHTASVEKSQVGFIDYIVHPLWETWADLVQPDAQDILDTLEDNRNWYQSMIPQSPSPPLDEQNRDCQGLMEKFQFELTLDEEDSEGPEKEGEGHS
T1 sequence (Q08499 380-756): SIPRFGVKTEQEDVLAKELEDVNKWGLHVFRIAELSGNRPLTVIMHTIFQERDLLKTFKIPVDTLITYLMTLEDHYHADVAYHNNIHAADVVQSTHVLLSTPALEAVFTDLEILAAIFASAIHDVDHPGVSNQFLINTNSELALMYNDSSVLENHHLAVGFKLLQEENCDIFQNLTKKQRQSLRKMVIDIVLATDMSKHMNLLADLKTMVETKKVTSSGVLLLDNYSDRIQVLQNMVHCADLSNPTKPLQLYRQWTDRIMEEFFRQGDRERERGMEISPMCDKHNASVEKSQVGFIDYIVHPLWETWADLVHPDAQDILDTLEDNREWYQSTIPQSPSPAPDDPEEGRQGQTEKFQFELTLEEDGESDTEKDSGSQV
T2 sequence (Q08499 1-745 isoform Q08499-6): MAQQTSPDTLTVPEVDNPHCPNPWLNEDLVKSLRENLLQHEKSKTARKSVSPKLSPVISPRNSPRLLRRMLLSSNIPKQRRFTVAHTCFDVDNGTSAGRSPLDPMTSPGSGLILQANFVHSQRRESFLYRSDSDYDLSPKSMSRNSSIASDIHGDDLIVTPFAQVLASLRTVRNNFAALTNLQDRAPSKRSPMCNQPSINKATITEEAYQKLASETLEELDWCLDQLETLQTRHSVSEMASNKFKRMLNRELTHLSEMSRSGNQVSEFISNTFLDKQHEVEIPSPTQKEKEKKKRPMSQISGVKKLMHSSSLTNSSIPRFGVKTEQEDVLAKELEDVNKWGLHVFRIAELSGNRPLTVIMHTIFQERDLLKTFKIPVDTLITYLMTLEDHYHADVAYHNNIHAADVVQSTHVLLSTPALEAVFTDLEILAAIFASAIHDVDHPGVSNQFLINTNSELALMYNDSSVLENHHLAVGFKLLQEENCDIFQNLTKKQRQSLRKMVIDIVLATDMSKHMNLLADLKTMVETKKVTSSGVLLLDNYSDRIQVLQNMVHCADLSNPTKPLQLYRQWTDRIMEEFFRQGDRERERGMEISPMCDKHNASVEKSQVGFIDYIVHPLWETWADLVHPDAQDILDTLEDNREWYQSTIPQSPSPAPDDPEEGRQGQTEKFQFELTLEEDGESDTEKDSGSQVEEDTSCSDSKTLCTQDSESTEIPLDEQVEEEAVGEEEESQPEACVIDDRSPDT

On to `CCOC(=O)c1c(NC2CCCC2)sc(C(=O)c2ccc(OC)cc2)c1N` [Compound 1-191, 4-Amino-2-cyclopentylamino-5-(4-methoxy-benzoyl)-thiophene-3-carboxylic acid ethyl ester], for which the inhibition in vivo at 50 mg in test [1] (setting [4]) was < 20%. Further, the IC50 (on PDE4D (setting [5]); in test [2] (setting [6]); in test [3] (setting [7])) was < 10 µM in each case.

With `CC(C)CNc1sc(C(=O)c2cc(-c3ccccc3)no2)c(N)c1C(N)=O` [Compound 1-236, 4-Amino-2-isobutylamino-5-(3-phenyl-isoxazole-5-carbonyl)-thiophene-3-carboxylic acid amide], the inhibition in vivo at 50 mg in test [1] (2 h, rat, ip, 2 hr challenge delay) is > 20%; in test [1] (setting [4]), > 20%. Besides, the IC50 (at PDE4D (setting [5]); in test [2] (setting [6]); in test [3] (setting [7])) was < 10 µM throughout.

As to `COc1ccc(C(=O)c2sc(Nc3ccccc3)c(C#N)c2N)cc1` [Compound 1-31], the inhibition in vivo at 200 mg in test [1] (1 h, rat, 200 mg, po, 1 hr challenge delay) was < 20%. The inhibition in vivo at 100 mg/kg in test [1] (setting [8]) is > 20%. Moreover, the IC50 (at PDE4D (setting [5]); in test [2] (setting [6]); in test [3] (setting [7])) was < 10 µM throughout.

For `Nc1nc(Nc2ccccc2F)sc1C(=O)c1cc(-c2ccccc2)no1` [Compound 2-6, [4-Amino-2-(2-fluoro-phenylamino)-thiazol-5-yl]-(3-phenyl-isoxazol-5-yl)-methanone], the inhibition in vivo at 100 mg/kg in test [1] (setting [9]) is > 20%. For the same compound, the IC50 on PDE4D (first part of Table 2B (2-1 to 2-22), read-out: IC 50 vs. indicated assay PDE4D) was < 10 µM; in test [2] (first part of Table 2B (2-1 to 2-22), read-out: IC 50 vs. indicated assay PDE4D5), < 10 µM; in test [3] (first part of Table 2B (2-1 to 2-22), read-out: IC 50 vs. indicated assay PDE4B) it was < 10 µM.

With `N#Cc1c(Nc2ccccc2)sc(C(=O)c2cc(-c3ccccc3)no2)c1N` [Compound 1-192, 4-Amino-2-phenylamino-5-(3-phenyl-isoxazole-5-carbonyl)-thiophene-3-carbonitrile], the inhibition in vivo at 50 mg in test [1] (setting [4]) was < 20%. Moreover, the IC50 (at PDE4D (setting [5]); in test [2] (setting [6]); in test [3] (setting [7])) was < 10 µM each time.

As for `Nc1nc(NC2CCCC2)sc1C(=O)c1cccc(Cl)c1` [Compound 2-80, (4-Amino-2-cyclopentylamino-thiazol-5-yl)-(3-chloro-phenyl)-methanone], the inhibition in vivo at 100 mg/kg in test [1] (setting [9]) is > 20%. For the same compound, the IC50 (on PDE4D (setting [10]); in test [3] (setting [11])) was < 10 µM in each case.

For the compound `Nc1nc(Nc2ccc(Cl)cc2)sc1C(=O)c1cccc(C(F)(F)F)c1` [Compound 2-23, [4-Amino-2-(4-chloro-phenylamino)-thiazol-5-yl]-(3-trifluoromethyl-phenyl)-methanone], the inhibition in vivo at 100 mg/kg in test [1] (setting [9]) is < 20%. For the same compound, the IC50 (at PDE4D (setting [10]); in test [3] (setting [11])) was < 10 µM throughout.

On to `NC(=O)c1c(NC2CCCC2)sc(C(=O)c2cc(-c3ccccc3)no2)c1N` [Compound 1-251, 4-Amino-2-cyclopentylamino-5-(3-phenyl-isoxazole-5-carbonyl)-thiophene-3-carboxylic acid amide], for which the inhibition in vivo at 50 mg in test [1] (setting [4]) was > 20%. The IC50 (on PDE4D (setting [5]); in test [2] (setting [6]); in test [3] (setting [7])) was < 10 µM in each case.

Regarding `CC(C)Nc1sc(C(=O)c2cc(-c3ccccc3)no2)c(N)c1C#N` [Compound 1-205, 4-Amino-2-isopropylamino-5-(3-phenyl-isoxazole-5-carbonyl)-thiophene-3-carbonitrile], the inhibition in vivo at 100 mg/kg in test [1] (setting [8]) was < 20%. For the same compound, the IC50 (on PDE4D (setting [5]); in test [3] (setting [7])) was < 10 µM each time.

Regarding `N#Cc1c(Nc2ccccc2)sc(C(=O)C2CC2)c1N` [Compound 1-28, 4-Amino-5-cyclopropanecarbonyl-2-phenylamino-thiophene-3-carbonitrile], the inhibition in vivo at 100 mg/kg in test [1] (setting [8]) was < 20%. Further, the IC50 (at PDE4D (setting [5]); in test [2] (setting [6]); in test [3] (setting [7])) was < 10 µM throughout.

For the compound `CC(C)Nc1sc(C(=O)c2cc(-c3ccc(Cl)cc3)no2)c(N)c1C#N` [Compound 1-212, 4-Amino-5-[3-(4-chloro-phenyl)-isoxazole-5-carbonyl]-2-isopropylamino-thiophene-3-carbonitrile], the inhibition in vivo at 90 mg in test [1] (2 h, rat, 90 mg, po, 2 hr challenge delay) was > 20%. The figures for the IC50 (at PDE4D (setting [5]); in test [2] (setting [6]); in test [3] (setting [7])) were > 10 µM, > 10 µM and < 10 µM, respectively.
